The results in this text go back to paper PMC7232676, “Fragment-Based Design of Mycobacterium tuberculosis InhA Inhibitors” (Journal of Medicinal Chemistry, 2020).

Read-outs that look alike come from different tables or passages of the source.

Assay [1] concerns the target T1, InhA (Mycobacterium tuberculosis, UniProt P9WGR1). In words: Differential scanning fluorimetry (fluorescence-based thermal-shift assay). It counts as binding. Conditions: for ΔTm (thermal shift of InhA): fragments 5 mM, InhA 10 μM, NAD+ 1 mM. The procedure:
Differential scanning fluorimetry (DSF) was used to screen an in-house library of 800 rule-of-three-compliant fragments. A saturating concentration of the cofactor in oxidized form (1 mM NAD^+) was used in all the experiments to ensure that the cofactor binding site would be occupied by NAD^+ and that fragments would not bind there. […] Upon screening of the fragment library, a hit was defined where the melting point was increased by at least +3 °C at a concentration of 5 mM (Figure 1a).
The substrate binding regions of InhA are divided into three sites: site I, site II, and site III.
Differential scanning fluorimetry was used to screen a library of 800 fragments. The assay was performed in a 96 well plate format using a CFX Connect (Bio-Rad). Each well contained a solution of 10 μM InhA, 1 mM NAD^+, HEPES (50 mM), NaCl (150 mM), pH 7.5, 5× Sypro Orange, 5% DMSO, and fragments at 5 mM. […] Controls were made in quadruplicates for all the experiments.
Background: Differential scanning fluorimetry follows unfolding on heating by fluorescence.

Assay [2] has as its target T1, InhA. In words: InhA enzymatic assay (NADH oxidation at 340 nm, 2-trans-octanoyl-CoA substrate). The format is biochemical. Conditions: for LE (ligand efficiency): LE = (1.37 × pIC50)/HA; for IC50: average of three experiments. How it is done: The identified fragment hits were further evaluated by an InhA enzymatic assay using 2-trans-octanoyl-CoA as a substrate.[22]
The carboxylic acid in fragment 1 (P1) was replaced by an isosteric sulfonamide as a linker to synthesize compound 6 (Figure 2b). Docking experiments with Glide XP[23] […] All the synthesized compounds were tested at a concentration of 100 μM using the InhA enzymatic assay.
InhA activity was followed by a colorimetric assay that measured the oxidation of NADH at 340 nm in the presence of 2-trans-octanoyl-CoA as described before in a buffer that contained 30 mM PIPES, pH 7.5, 50 mM NaCl, 0.1 mM EDTA, and 100 nM InhA.[26] This was preincubated for 10 min at room temperature with 0.25 mM NADH and varying concentrations of the compounds with 1% (v/v) DMSO in a 150 μL reaction volume. The reaction was started by the addition of 2-trans-octanoyl-CoA at a final concentration of 1.5 mM, prepared as described previously.[22] Reactions were followed for 20 min using a plate reader (CLARIOstar, BMG LABTECH).

The subject of the next assay is M. tuberculosis H37Ra. In words: Growth inhibition of M. tuberculosis H37Ra, 48 h cultivation. It counts as cell-based, Mycobacterium tuberculosis. The following applies: for inhibition at 200 µM: Mycobacterium tuberculosis, H37RA, 200 μM compound in the media, 48 h cultivation. The procedure:
Further analysis of the effect on the synthesis of mycolic acids by metabolic labeling[24],[25] of the model strain M. tuberculosis H37Ra with ^14C acetate was also explored. A 48 h cultivation in the presence of 200 μM of the compounds in the media led to 84% growth inhibition for compound 19; 40% and 33% growth inhibition for compounds 14 and 23, respectively; 38% growth inhibition for compound 24 and isoniazid; 23% growth inhibition for compounds 25 and 26.
The culture of M. tuberculosis H37Ra was grown statically at 37 °C in Middlebrook 7H9 broth (Difco) supplemented with albumin–dextrose–catalase and 0.05% Tween 80. When the culture reached the OD600nm value of 0.290, it was divided into 10 mL aliquots and tested compounds dissolved in DMSO were added at 200 μM final concentrations, while isoniazid that served as a control inhibitor was at 40 μM. The final concentration of DMSO in each culture was at 1%. After 24 h of cultivation with shaking (120 rpm) in the presence of tested inhibitors, ^14C acetate (specific activity of 106 mCi/mmol) was added at a final concentration of 0.5 μCi/mL and the cells were cultivated for the next 24 h.

The mark [3] stands for this setting: 100 μM compound, read-out: Inh % (inhibition percentage of InhA).
The mark [4] stands for this setting: supplementary CSV, read-out: % inhibition.

T1 sequence (P9WGR1 whole entry, looked up, the tested form may be a part): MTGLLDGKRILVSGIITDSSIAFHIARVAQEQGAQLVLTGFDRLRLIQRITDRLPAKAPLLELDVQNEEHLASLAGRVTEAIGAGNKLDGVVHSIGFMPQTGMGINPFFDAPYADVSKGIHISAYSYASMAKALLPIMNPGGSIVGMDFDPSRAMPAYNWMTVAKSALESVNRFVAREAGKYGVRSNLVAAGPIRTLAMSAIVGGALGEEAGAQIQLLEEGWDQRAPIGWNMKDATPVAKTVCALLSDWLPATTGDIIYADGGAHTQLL

As for `O=C(O)/C=C/c1cccc(C(F)(F)F)c1` [compound 1, (E)-3-(3-(trifluoromethyl)phenyl)acrylic acid], the DTm on InhA [1] is 3.2 oC. Further, the “Inhibition of InhA” value at InhA [2] (2 mM fragment, triplicate) was determined as 0%.

Take `O=C(O)c1ccccc1C(=O)c1ccc(Cl)c([N+](=O)[O-])c1` [compound 2, 2-(4-chloro-3-nitrobenzoyl)benzoic acid]: at InhA [1], the DTm stood at 4.2 oC and the “ΔTm (thermal shift of InhA)” value is “+4.2 °C”.

Consider `O=C(O)c1cc2ccccc2cc1O` [compound 3, 3-hydroxy-2-naphthoic acid], for which, at InhA [1], the DTm is listed as 4.2 oC and the “ΔTm (thermal shift of InhA)” value was “+4.2 °C”.

With `O=C(O)CCc1cccc(Cl)c1` [compound 4, 3-(3-chlorophenyl)propanoic acid], at InhA [1], the DTm is 3 oC and the “ΔTm (thermal shift of InhA)” value was “+3.0 °C”.

For `O=C(O)c1ccccc1-n1cccn1` [compound 5, 2-(1H-pyrazol-1-yl)benzoic acid], at InhA [1], the DTm turned out to be 6 oC and the “ΔTm (thermal shift of InhA)” value was “+6.0 °C”.

One may read the inhibition as the drop in the measured response relative to a control, in per cent. With `O=S(=O)(/C=C/c1cccc(C(F)(F)F)c1)Nc1ccccc1` [compound 6, (E)-N-Phenyl-2-(3-(trifluoromethyl)phenyl)ethene-1-sulfonamide], the inhibition at 100 µM on InhA [2] (setting [3]) and on InhA [2] (setting [4]) was 54% throughout.

On to `O=S(=O)(/C=C/c1cccc(C(F)(F)F)c1)NC1CCNCC1` [compound 7, (E)-N-(Piperidin-4-yl)-2-(3-(trifluoromethyl)phenyl)ethene-1-sulfonamide], for which the inhibition at 100 µM at InhA [2] (setting [3]) and on InhA [2] (setting [4]) was 15% in each case.

Turning to `O=S(=O)(/C=C/c1cccc(C(F)(F)F)c1)Nc1cccnc1` [compound 8, (E)-N-(Pyridin-3-yl)-2-(3-(trifluoromethyl)phenyl)ethene-1-sulfonamide], the inhibition at 100 µM at InhA [2] (setting [3]) and on InhA [2] (setting [4]) was 17% throughout.

On to `COC(=O)c1ccc(NS(=O)(=O)/C=C/c2cccc(C(F)(F)F)c2)cc1` [compound 9, Methyl-(E)-4-((2-(3-(trifluoromethyl)phenyl)vinyl)sulfonamido)benzoate], for which the inhibition at 100 µM on InhA [2] (setting [3]) and at InhA [2] (setting [4]) was 0% each time.

As for `CC(C)(C)OC(=O)Nc1ccc(NS(=O)(=O)/C=C/c2cccc(C(F)(F)F)c2)cc1` [compound 10, tert-Butyl-(E)-(4-((2-(3-(trifluoromethyl)phenyl)vinyl)sulfonamido)phenyl)carbamate], the inhibition at 100 µM at InhA [2] (setting [3]) and at InhA [2] (setting [4]) was 11% throughout.

On to `Nc1ccc(NS(=O)(=O)/C=C/c2cccc(C(F)(F)F)c2)cc1` [compound 11, (E)-N-(4-Aminophenyl)-2-(3-(trifluoromethyl)phenyl)ethene-1-sulfonamide], for which the inhibition at 100 µM on InhA [2] (setting [3]) and at InhA [2] (setting [4]) was 6% in each case.

As to `COc1ccc(NS(=O)(=O)/C=C/c2cccc(C(F)(F)F)c2)cc1` [compound 12, (E)-N-(4-Methoxyphenyl)-2-(3-(trifluoromethyl)phenyl)ethene-1-sulfonamide], the inhibition at 100 µM at InhA [2] (setting [3]) and on InhA [2] (setting [4]) was 15% in each case.

Consider `COC(=O)Cc1ccc(NS(=O)(=O)/C=C/c2cccc(C(F)(F)F)c2)cc1` [compound 13, Methyl-(E)-2-(4-((2-(3-(trifluoromethyl)phenyl)vinyl)sulfonamido)phenyl)acetate], for which the inhibition at 100 µM on InhA [2] (setting [3]) and on InhA [2] (setting [4]) was 24% in each case.

Usually IC50 stands for the concentration that gives 50% inhibition. Read a low IC50 as higher potency. In the case of `NCc1ccc(NS(=O)(=O)/C=C/c2cccc(C(F)(F)F)c2)cc1` [compound 14, (E)-N-(4-(Aminomethyl)phenyl)-2-(3-(trifluoromethyl)phenyl)ethene-1-sulfonamide], the inhibition at 100 µM at InhA [2] (setting [3]) was greater than 90%. In addition, at InhA [2], the “LE (ligand efficiency)” value came to 0.29 and the IC50 was 9 µM. For the same compound, the “fold increase of the potency from compound 6” value at InhA [2] (compared to compound 6) turned out to be 10 fold. Moreover, the inhibition at 100 µM on InhA [2] (setting [4]) was greater than 90%. The compound further had an inhibition at 200 µM with M. tuberculosis H37Ra of 40%.

Turning to `CNCc1ccc(NS(=O)(=O)/C=C/c2cccc(C(F)(F)F)c2)cc1` [compound 15, (E)-N-(4-((Methylamino)methyl)phenyl)-2-(3-(trifluoromethyl)phenyl)ethene-1-sulfonamide], the inhibition at 100 µM at InhA [2] (setting [3]) and on InhA [2] (setting [4]) was 0% in each case.

In the case of `CC(=O)NCc1ccc(NS(=O)(=O)/C=C/c2cccc(C(F)(F)F)c2)cc1` [compound 16, (E)-N-(4-((2-(3-(Trifluoromethyl)phenyl)vinyl)sulfonamido)benzyl)acetamide], the inhibition at 100 µM at InhA [2] (setting [3]) and at InhA [2] (setting [4]) was 25% in each case.

In the case of `O=C(O)c1ccc(NS(=O)(=O)/C=C/c2cccc(C(F)(F)F)c2)cc1` [compound 17, (E)-4-((2-(3-(Trifluoromethyl)phenyl)vinyl)sulfonamido)benzoic Acid], the inhibition at 100 µM at InhA [2] (setting [3]) and on InhA [2] (setting [4]) was 0% in each case.

Turning to `O=S(=O)(/C=C/c1cccc(C(F)(F)F)c1)Nc1ccc2c(c1)CNCC2` [compound 20, (E)-N-(1,2,3,4-Tetrahydroisoquinolin-7-yl)-2-(3-(trifluoromethyl)phenyl)ethene-1-sulfonamide], the inhibition at 100 µM at InhA [2] (setting [3]) and on InhA [2] (setting [4]) was 0% each time.

Regarding `CC(C)(C)c1ccc(S(=O)(=O)Nc2cccc(CN)c2)cc1` [compound 21, N-(3-(Aminomethyl)phenyl)-4-(tert-butyl)benzenesulfonamide], the inhibition at 100 µM on InhA [2] (setting [3]) and at InhA [2] (setting [4]) was 40% in each case.

In the case of `NCc1cccc(NS(=O)(=O)CCc2cccc3ccccc23)c1` [compound 22, N-(3-(Aminomethyl)phenyl)-2-(naphthalen-1-yl)ethane-1-sulfonamide], the inhibition at 100 µM at InhA [2] (setting [3]) and on InhA [2] (setting [4]) was 17% throughout.

`Cc1c(S(=O)(=O)Nc2cccc(CN)c2)sc2ccc(Cl)cc12` [compound 23, N-(3-(Aminomethyl)phenyl)-5-chloro-3-methylbenzo[b]thiophene-2-sulfonamide]: the inhibition at 100 µM on InhA [2] (setting [3]) and on InhA [2] (setting [4]) was greater than 90% in each case. In addition, the “activity against M. tuberculosis” value with M. tuberculosis H37Ra is “inactive”. The compound also came in with an inhibition at 200 µM with M. tuberculosis H37Ra of 33%.

With `Cc1c(S(=O)(=O)Nc2cccc(CN)c2)sc2ccc(F)cc12` [compound 24, N-(3-(Aminomethyl)phenyl)-5-fluoro-3-methylbenzo[b]thiophene-2-sulfonamide], the inhibition at 100 µM on InhA [2] (setting [3]) and at InhA [2] (setting [4]) was greater than 90% each time. Besides, on InhA [2], the “LE (ligand efficiency)” value is reported as 0.40. The IC50 against InhA [2] is 0.25 µM. 200 µM produced 38% inhibition in the assay with M. tuberculosis H37Ra.

Regarding `NCc1cccc(NS(=O)(=O)c2cc3ccccc3s2)c1` [compound 25, N-(3-(Aminomethyl)phenyl)benzo[b]thiophene-2-sulfonamide], the inhibition at 100 µM on InhA [2] (setting [3]) and at InhA [2] (setting [4]) was greater than 90% throughout. Further, 6 µM corresponded to half-maximal inhibition at InhA [2] (IC50). Besides, testing at 200 µM in the assay with M. tuberculosis H37Ra gave an inhibition of 23%.

Turning to `NCc1cccc(NS(=O)(=O)c2cc3ccccc3o2)c1` [compound 26, N-(3-(Aminomethyl)phenyl)benzofuran-2-sulfonamide], the inhibition at 100 µM on InhA [2] (read-out: Inh % (inhibition percentage of InhA)) and at InhA [2] (setting [4]) was 66% each time. This compound also registered an inhibition at 200 µM with M. tuberculosis H37Ra of 23%.

As usually defined, the % inhibition is the relative decrease from the control value, in per cent. The low end stands for little suppression, the high end for strong suppression. In the case of “(E)-4-((2-(3-(Trifluoromethyl)phenyl)vinyl)sulfonamido)benzamide [compound 18]”, the “Inh % (inhibition percentage of InhA)” value at InhA [2] (100 μM compound) was 0%. On InhA [2] (supplementary CSV), the “% inhibition” value amounted to 0%.
